According to US10626112B2, “Heterocyclic sulfonamide derivative and medicine comprising same” (EA PHARMA CO., LTD., priority 2014, dated 2020):
pIC50: −log10 of the molar value.

Target: human TRPA1 (Homo sapiens (Human), UniProt O75762)
Assay: Measurement of TRPA1 antagonist activity (1): intracellular calcium increase
Assay type: cell-based
Conditions: 293T cells transfected with human TRPA1 expression plasmid; allylisothiocyanate 20 μM stimulation; intracellular calcium fluorescence; read-out: hTRPA1 IC50
Summary of the method: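 HEK293T cells transiently transfected with full-length human TRPA1, loaded with Calcium4 dye in HBSS/20 mM HEPES pH 7.2. Test compound preincubated 10 min, then allylisothiocyanate added at 20 μM final and fluorescence change followed for 5 min. IC50 from sigmoid fit of percent inhibition relative to agonist and buffer controls.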

Chain of human TRPA1 (O75762 whole entry): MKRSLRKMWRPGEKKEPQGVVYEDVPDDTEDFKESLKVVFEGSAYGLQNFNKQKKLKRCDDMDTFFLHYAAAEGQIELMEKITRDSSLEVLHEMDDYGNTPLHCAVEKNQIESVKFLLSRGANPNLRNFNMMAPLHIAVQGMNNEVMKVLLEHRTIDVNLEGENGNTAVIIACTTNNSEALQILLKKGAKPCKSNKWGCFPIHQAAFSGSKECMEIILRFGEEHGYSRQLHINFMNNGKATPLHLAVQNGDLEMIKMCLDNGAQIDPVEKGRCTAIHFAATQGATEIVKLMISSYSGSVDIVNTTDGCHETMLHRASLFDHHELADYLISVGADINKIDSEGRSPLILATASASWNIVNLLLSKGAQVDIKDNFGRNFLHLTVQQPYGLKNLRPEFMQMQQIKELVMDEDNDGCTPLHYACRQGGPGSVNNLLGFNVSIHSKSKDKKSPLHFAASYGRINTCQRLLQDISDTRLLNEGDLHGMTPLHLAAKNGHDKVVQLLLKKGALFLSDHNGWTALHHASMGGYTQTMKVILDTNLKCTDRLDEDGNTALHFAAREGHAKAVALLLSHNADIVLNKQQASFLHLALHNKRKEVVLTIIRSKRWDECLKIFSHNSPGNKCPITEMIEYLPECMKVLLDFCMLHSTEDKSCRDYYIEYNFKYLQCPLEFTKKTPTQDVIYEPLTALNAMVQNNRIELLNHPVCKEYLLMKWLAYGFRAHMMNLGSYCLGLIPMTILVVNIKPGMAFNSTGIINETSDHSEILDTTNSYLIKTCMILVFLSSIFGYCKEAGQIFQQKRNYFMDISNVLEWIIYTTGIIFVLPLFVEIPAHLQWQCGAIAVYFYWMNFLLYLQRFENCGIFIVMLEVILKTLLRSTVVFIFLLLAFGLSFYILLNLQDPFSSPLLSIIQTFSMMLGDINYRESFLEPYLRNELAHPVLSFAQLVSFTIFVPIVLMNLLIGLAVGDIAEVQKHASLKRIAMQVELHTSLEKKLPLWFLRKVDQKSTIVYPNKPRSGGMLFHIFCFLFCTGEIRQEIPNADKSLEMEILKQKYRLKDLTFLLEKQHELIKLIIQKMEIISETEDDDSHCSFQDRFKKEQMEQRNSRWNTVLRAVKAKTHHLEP

Row | pIC50 | Compound
1 | 8.92 | O=C(NCc1cccc(-c2ccc(C(F)(F)F)cn2)c1)[C@@H]1CCCN1S(=O)(=O)c1cc2ccccc2o1 [Example 80, (2S)-1-(benzofuran-2-ylsulfonyl)-N-[[3-[5-(trifluoromethyl)-2-pyridyl]phenyl]methyl]pyrrolidine-2-carboxamide]
2 | 8.92 | O=C(NCc1cc(-c2ccc(C(F)(F)F)cc2)ncn1)[C@@H]1CCCN1S(=O)(=O)c1cc2ccccc2o1 [Example 84, (2S)-1-(benzofuran-2-ylsulfonyl)-N-[[6-[4-(trifluoromethyl)phenyl]pyrimidin-4-yl]methyl]pyrrolidine-2-carboxamide]
3 | 7.70 | O=C(NCc1cncc(-c2ccc(C(F)(F)F)nc2)c1)[C@@H]1CCCN1S(=O)(=O)c1cc2ccccc2o1 [Example 86, (2S)-1-(benzofuran-2-ylsulfonyl)-N-[[5-[6-(trifluoromethyl)-3-pyridyl]-3-pyridyl]methyl]pyrrolidine-2-carboxamide]
4 | 9.39 | O=C(NCc1cccc(-c2ccc(C(F)(F)F)nc2)c1)[C@@H]1CCCN1S(=O)(=O)c1cc2cc(F)ccc2o1 [Example 88, (2S)-1-(5-fluorobenzofuran-2-yl)sulfonyl-N-[[3-[6-(trifluoromethyl)-3-pyridyl]phenyl]methyl]pyrrolidine-2-carboxamide]
5 | 9.42 | O=C(NCc1cccc(-c2ccc(C(F)(F)F)cn2)c1)[C@@H]1CCCN1S(=O)(=O)c1cc2cc(F)ccc2o1 [Example 89, (2S)-1-(5-fluorobenzofuran-2-yl)sulfonyl-N-[[3-[5-(trifluoromethyl)-2-pyridyl]phenyl]methyl]pyrrolidine-2-carboxamide]
6 | 9.08 | O=C(NCc1cc(-c2ccc(C(F)(F)F)cc2)ncn1)[C@@H]1CCCN1S(=O)(=O)c1cc2cc(F)ccc2o1 [Example 90, (2S)-1-(5-fluorobenzofuran-2-yl)sulfonyl-N-[[6-[4-(trifluoromethyl)phenyl]pyrimidin-4-yl]methyl]pyrrolidine-2-carboxamide]
7 | 8.66 | O=C(NCc1cccc(-c2ccc(C(F)(F)F)nc2)c1)[C@@H]1CCCN1S(=O)(=O)c1cc2c(F)cccc2o1 [Example 92, (2S)-1-(4-fluorobenzofuran-2-yl)sulfonyl-N-[[3-[6-(trifluoromethyl)-3-pyridyl]phenyl]methyl]pyrrolidine-2-carboxamide]
8 | 7.64 | O=C(NCc1cccc(-c2ccc(C(F)(F)F)nc2)c1)[C@@H]1[C@@H](O)CCN1S(=O)(=O)c1cc2cc(F)ccc2o1 [Example 93, (2S,3S)-1-(5-fluorobenzofuran-2-yl)sulfonyl-3-hydroxy-N-[[3-[6-(trifluoromethyl)-3-pyridyl]phenyl]methyl]pyrrolidine-2-carboxamide]
9 | 7.96 | O=C(NCc1cccc(-c2ccc(C(F)(F)F)cn2)c1)[C@@H]1[C@@H](O)CCN1S(=O)(=O)c1cc2cc(F)ccc2o1 [Example 94, (2S,3S)-1-(5-fluorobenzofuran-2-yl)sulfonyl-3-hydroxy-N-[[3-[5-(trifluoromethyl)-2-pyridyl]phenyl]methyl]pyrrolidine-2-carboxamide]
10 | 8.27 | O=C(NCc1ccnc(-c2ccc(C(F)(F)F)cc2)c1)[C@@H]1[C@@H](O)CCN1S(=O)(=O)c1cc2cc(F)ccc2o1 [Example 95, (2S,3S)-1-(5-fluorobenzofuran-2-yl)sulfonyl-3-hydroxy-N-[[2-[4-(trifluoromethyl)phenyl]-4-pyridyl]methyl]pyrrolidine-2-carboxamide]
11 | 6.60 | CN(C)c1cc(-c2cccc(CNC(=O)[C@@H]3CCCN3S(=O)(=O)c3cc4cc(F)ccc4o3)c2)ccn1 [Example 96, (2S)-N-[[3-[2-(dimethylamino)-4-pyridyl]phenyl]methyl]-1-(5-fluorobenzofuran-2-yl)sulfonyl-pyrrolidine-2-carboxamide]
12 | 8.40 | O=C(NCc1ccnc(-c2ccc(C(F)(F)F)cc2)c1)[C@@H]1CCCN1S(=O)(=O)c1cc2c(F)cccc2o1 [Example 97, (2S)-1-(4-fluorobenzofuran-2-yl)sulfonyl-N-[[2-[4-(trifluoromethyl)phenyl]-4-pyridyl]methyl]pyrrolidine-2-carboxamide]
13 | 9.12 | O=C(NCc1ccnc(-c2ccc(C(F)(F)F)cc2)c1)[C@@H]1C=CCN1S(=O)(=O)c1cc2cc(F)ccc2o1 [Example 98, (2S)-1-(5-fluorobenzofuran-2-yl)sulfonyl-N-[[2-[4-(trifluoromethyl)phenyl]-4-pyridyl]methyl]-2,5-dihydropyrrole-2-carboxamide]
14 | 7.89 | O=C(NCc1ccnc(-c2ccc(C(F)(F)F)cc2)c1)[C@@H]1CC(F)(F)CN1S(=O)(=O)c1cc2cc(F)ccc2o1 [Example 99, (2S)-4,4-difluoro-1-(5-fluorobenzofuran-2-yl)sulfonyl-N-[[2-[4-(trifluoromethyl)phenyl]-4-pyridyl]methyl]pyrrolidine-2-carboxamide]
15 | 8.80 | O=C(NCc1cccc(-c2ccc(C(F)(F)F)nc2)c1)[C@@H]1CCN1S(=O)(=O)c1cc2cc(F)ccc2o1 [Example 100, (2S)-1-(5-fluorobenzofuran-2-yl)sulfonyl-N-[[3-[6-(trifluoromethyl)-3-pyridyl]phenyl]methyl]azetidine-2-carboxamide]
16 | 7.57 | C[C@H](NS(=O)(=O)c1cc2ccccc2o1)C(=O)NCc1cccc(-c2ccc(C(F)(F)F)nc2)c1 [Example 101, (2S)-2-(benzofuran-2-ylsulfonylamino)-N-[[3-[6-(trifluoromethyl)-3-pyridyl]phenyl]methyl]propanamide]
17 | 7.55 | C[C@H](NS(=O)(=O)c1cc2ccccc2o1)C(=O)NCc1cccc(-c2ccc(C(F)(F)F)cn2)c1 [Example 102, (2S)-2-(benzofuran-2-ylsulfonylamino)-N-[[3-[5-(trifluoromethyl)-2-pyridyl]phenyl]methyl]propanamide]
18 | 7.25 | C[C@H](NS(=O)(=O)c1cc2ccccc2o1)C(=O)NCc1ccnc(-c2ccc(C(F)(F)F)cc2)c1 [Example 103, (2S)-2-(benzofuran-2-ylsulfonylamino)-N-[[2-[4-(trifluoromethyl)phenyl]-4-pyridyl]methyl]propanamide]
19 | 7.85 | C[C@H](NS(=O)(=O)c1cc2ccccc2o1)C(=O)NCc1cc(-c2ccc(C(F)(F)F)cc2)ncn1 [Example 104, (2S)-2-(benzofuran-2-ylsulfonylamino)-N-[[6-[4-(trifluoromethyl)phenyl]pyrimidin-4-yl]methyl]propanamide]
20 | 7.17 | C[C@H](NS(=O)(=O)c1cc2ccccc2o1)C(=O)NCc1cc(-c2ccc(C(F)(F)F)nc2)ccn1 [Example 105, (2S)-2-(benzofuran-2-ylsulfonylamino)-N-[[4-[6-(trifluoromethyl)-3-pyridyl]-2-pyridyl]methyl]propanamide]
21 | 8.00 | C[C@H](NS(=O)(=O)c1cc2cc(F)ccc2o1)C(=O)NCc1cccc(-c2ccc(C(F)(F)F)nc2)c1 [Example 106, (2S)-2-[(5-fluorobenzofuran-2-yl)sulfonylamino]-N-[[3-[6-(trifluoromethyl)-3-pyridyl]phenyl]methyl]propanamide]
22 | 8.16 | C[C@H](NS(=O)(=O)c1cc2cc(F)ccc2o1)C(=O)NCc1cccc(-c2ccc(C(F)(F)F)cn2)c1 [Example 107, (2S)-2-[(5-fluorobenzofuran-2-yl)sulfonylamino]-N-[[3-[5-(trifluoromethyl)-2-pyridyl]phenyl]methyl]propanamide]
23 | 7.89 | C[C@H](NS(=O)(=O)c1cc2cc(F)ccc2o1)C(=O)NCc1ccnc(-c2ccc(C(F)(F)F)cc2)c1 [Example 108, (2S)-2-[(5-fluorobenzofuran-2-yl)sulfonylamino]-N-[[2-[4-(trifluoromethyl)phenyl]-4-pyridyl]methyl]propanamide]
24 | 8.33 | C[C@H](NS(=O)(=O)c1cc2cc(F)ccc2o1)C(=O)NCc1cc(-c2ccc(C(F)(F)F)cc2)ncn1 [Example 109, (2S)-2-[(5-fluorobenzofuran-2-yl)sulfonylamino]-N-[[6-[4-(trifluoromethyl)phenyl]pyrimidin-4-yl]methyl]propanamide]
25 | 7.77 | C[C@H](NS(=O)(=O)c1cc2cc(F)ccc2o1)C(=O)NCc1cc(-c2ccc(C(F)(F)F)nc2)ccn1 [Example 110, (2S)-2-[(5-fluorobenzofuran-2-yl)sulfonylamino]-N-[[4-[6-(trifluoromethyl)-3-pyridyl]-2-pyridyl]methyl]propanamide]
26 | 6.89 | Cc1ccc2oc(S(=O)(=O)N3CCC[C@H]3C(=O)NCc3cccc(-c4ccc(C(F)(F)F)nc4)c3)cc2c1 [Example 111, (2S)-1-(5-methylbenzofuran-2-yl)sulfonyl-N-[[3-[6-(trifluoromethyl)-3-pyridyl]phenyl]methyl]pyrrolidine-2-carboxamide]
27 | 6.57 | O=C(NCc1ccnc(-c2ccccc2)c1)[C@@H]1CCCN1S(=O)(=O)c1cc2ccccc2o1 [Example 112, (2S)-1-(benzofuran-2-ylsulfonyl)-N-[(2-phenyl-4-pyridyl)methyl]pyrrolidine-2-carboxamide]
28 | 6.92 | O=C(NCc1ccnc(-c2cccc(F)c2)c1)[C@@H]1CCCN1S(=O)(=O)c1cc2ccccc2o1 [Example 113, (2S)-1-(benzofuran-2-ylsulfonyl)-N-[[2-(3-fluorophenyl)-4-pyridyl]methyl]pyrrolidine-2-carboxamide]
29 | 7.49 | O=C(NCc1ccnc(-c2ccc(F)cc2)c1)[C@@H]1CCCN1S(=O)(=O)c1cc2ccccc2o1 [Example 114, (2S)-1-(benzofuran-2-ylsulfonyl)-N-[[2-(4-fluorophenyl)-4-pyridyl]methyl]pyrrolidine-2-carboxamide]
30 | 8.62 | O=C(NCc1ccnc(-c2ccc(C(F)(F)F)cc2)c1)[C@@H]1CCCN1S(=O)(=O)c1cc2ccccc2o1 [Example 115, (2S)-1-(benzofuran-2-ylsulfonyl)-N-[[2-[4-(trifluoromethyl)phenyl]-4-pyridyl]methyl]pyrrolidine-2-carboxamide]
